Positions of bridges follow the written chain, without caps; N, C: chain ends. Non-standard residues stand in square brackets, D forms with d. Residues, ends and D or L forms follow the SMILES beside them. Phe(4-CH2NH2) = NCc1ccc(C[C@H](N)C(=O)O)cc1; Thz(5,5-Me2) = CC1(C)SCN[C@@H]1C(=O)O; NMeR = CN[C@@H](CCCNC(=N)N)C(=O)O

The nature of experiment [1]: Inhibition of human platelet aggregation in platelet rich plasma.
A short description of experiment [2]: Inhibition of ADP-induced platelet aggregation.
A short description of experiment [3]: Inhibition of ADP-induced platelet aggregation. This is another data set of the same source.
A short description of experiment [4]: Inhibition of alpha IIb beta-3 integrin mediated platelet aggregation.
Experiment [5] in a line: Inhibition of human gel filtered platelet aggregation mediated by 10 uM ADP.
The nature of experiment [6]: Inhibition of alpha IIb beta-3 integrin mediated platelet aggregation. The source holds these as a separate data set.
A short description of experiment [7]: inhibition of platelet aggregation in human platelet rich plasma.
A short description of experiment [8]: Inhibition of human platelet aggregation in platelet rich plasma (PRP).
The nature of experiment [9]: Inhibition canine platelet aggregation in platelet rich plasma (PRP).
Experiment [10] can be described thus: Inhibition of human gel filtered platelet aggregation induced by ADP.
A short description of experiment [11]: Inhibition of collagen-induced platelet aggregation.
Experiment [12] in a line: Inhibition of human platelet aggregation.
Experiment [13] in a line: Inhibition of canine platelet aggregation.

`O=C(NC[C@H](NS(=O)(=O)c1ccccc1)C(=O)O)c1cnc(N2CCN(C3CCNCC3)CC2)s1` [2-Benzenesulfonylamino-3-{[2-(4-piperidin-4-yl-piperazin-1-yl)-thiazole-5-carbonyl]-amino}-propionic acid (UR-12947)]: in experiment [1], it took 0.0035 µM to reach half-maximal inhibition (IC50).

Turning to `CCCCOC(=O)N[C@@H](CNC(=O)C1CC(OCc2ccc(C(=N)N)cc2)=NO1)C(=O)OC` (stereo partly drawn) [2-Butoxycarbonylamino-3-{[3-(4-carbamimidoyl-benzyloxy)-4,5-dihydro-isoxazole-5-carbonyl]-amino}-propionic acid methyl ester(XU 065)], the IC50 (as a rule, the concentration that gives 50% inhibition) in [2] was determined as 0.05 µM.

For the compound `N=C(N)c1ccc(C(=O)Nc2ccc3c(c2)C(=O)N(CCC(=O)O)Cc2nnnn2-3)cc1` [3-[8-(4-Carbamimidoyl-benzoylamino)-6-oxo-4H,6H-1,2,3,5,10b-pentaaza-benzo[e]azulen-5-yl]-propionic acid(G7453)], half-maximal inhibition in [3] (IC50) required 0.054 µM.

Compound `C[C@H](CC(=O)O)NC(=O)CN1CCC[C@@H](CCC2CCNCC2)C1=O` [3-{2-[2-Oxo-3-(2-piperidin-4-yl-ethyl)-piperidin-1-yl]-acetylamino}-butyric acid (L-734217)] registered an IC50 in [4] of 0.023 µM.

In [5], `CC(=O)N[C@H]1CSSC[C@@H](C(=O)O)NC(=O)[C@H](CC(=O)O)NC(=O)CNC(=O)[C@H](Cc2ccc(CN)cc2)NC(=O)[C@H]2N(CSC2(C)C)C(=O)[C@H](CC(N)=O)NC1=O` [8-Acetylamino-22-(4-aminomethyl-benzyl)-5-carbamoylmethyl-16-carboxymethyl-1,1-dimethyl-4,7,15,18,21,24-hexaoxo-icosahydro-2,10,11-trithia-3a,6,14,17,20,23-hexaaza-cyclopentacyclotricosene-13-carboxylic acid (MK-0852)] (Ac-CN[Thz(5,5-Me2)][Phe(4-CH2NH2)]GDC-OH; disulfide 1-7) had an IC50 of 0.026 µM.

`CCOC(=O)CC1CCN(C(=O)C(C)(C)[C@@H](CC)NC(=O)c2ccc(C(=N)N3CCSC3)cc2F)CC1` [(1-{3-[2-Fluoro-4-(imino-thiazolidin-3-yl-methyl)-benzoylamino]-2,2-dimethyl-pentanoyl}-piperidin-4-yl)-acetic acid ethyl ester(NSL-96184)] returned an IC50 in experiment [6] of 0.045 µM.

With `CCOC(=O)COC1CCN(C(=O)[C@H](C)NC(=O)c2ccc(C(=N)NO)cc2)CC1` [((S)-1-{2-[4-(N-Hydroxycarbamimidoyl)-benzoylamino]-propionyl}-piperidin-4-yloxy)-acetic acid ethyl ester], the IC50 in experiment [7] was determined as 0.038 µM.

`O=C(CCCC1CCNCC1)NCC(=O)N[C@H](CCc1c[nH]c2ccccc12)C(=O)O` [L-703014] registered an IC50 in [8] of 0.094 µM.

Consider `N=C(N)c1ccc(CCCCC(=O)N[C@@H](CC(=O)O)C(=O)N[C@@H](Cc2ccccc2)C(=O)O)cc1` [SC-52012], for which the IC50 in experiment [9] is 0.072 µM.

In the case of `CCOC(=O)CCNC(=O)N[C@H]1CCN(c2ccc(C(=N)N)cc2)C1=O` [SC-57099B], the IC50 in experiment [10] turned out to be 0.08 µM; in experiment [11], 0.13 µM.

Turning to `CC(=O)N[C@H]1CSSC[C@@H](C(N)=O)NC(=O)[C@H](CC(=O)O)NC(=O)CNC(=O)[C@H](CCCNC(=N)N)N(C)C1=O` [[16-Acetylamino-4-carbamoyl-13-(3-guanidino-propyl)-14-methyl-6,9,12,15-tetraoxo-1,2-dithia-5,8,11,14-tetraaza-cycloheptadec-7-yl]-acetic acid (SK&F 106760)] (Ac-C[NMeR]GDC-NH2; disulfide 1-5), the IC50 came to 0.23 µM in [12] and 0.09 µM in experiment [13].

The values are drawn from BindingDB's records for doi:10.1021/jm000022w (Cor Therapeutics, 2000).
